# In PMC10578927, “An unconventional gatekeeper mutation sensitizes inositol hexakisphosphate kinases to an allosteric inhibitor” (eLife, 2023):
# pIC50: −log10 of the molar value.
# Columns and labels:
# [1] = target: T1, IP6KA^wt (Entamoeba histolytica, UniProt N9UNA8); experiment: NMR activity assay for EhIP6KA constructs; type: biochemical
# T1 sequence (N9UNA8 1-270): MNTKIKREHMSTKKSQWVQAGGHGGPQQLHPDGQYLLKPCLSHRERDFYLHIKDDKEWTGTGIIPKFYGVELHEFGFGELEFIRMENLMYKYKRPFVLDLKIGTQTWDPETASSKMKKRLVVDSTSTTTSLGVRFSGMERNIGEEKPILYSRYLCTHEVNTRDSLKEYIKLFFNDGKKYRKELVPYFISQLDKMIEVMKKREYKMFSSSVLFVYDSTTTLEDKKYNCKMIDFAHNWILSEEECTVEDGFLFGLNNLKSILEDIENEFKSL
# Procedure: The NMR assay for EhIP6KA activity was performed similarly as described before ([Harmel et al., 2019]) with slight alterations. Enzyme assays were performed in D2O in a total volume of 150 µl containing 20 mM MES pH* 6.4, 50 mM NaCl, 6 mM MgCl2, 1 mM ATP, 0.2 mg/ml BSA, 1 mM DTT, 5 mM creatine phosphate, and 1 U/ml creatine kinase (ATP-regenerating system) and 50 nM kinase if not otherwise stated. MES, NaCl, and BSA were prepared as buffer A and DTT and creatine phosphate as buffer B in D2O and were adjusted to pH* 6.4, respectively. If applicable, inhibitor was added as a DMSO-d6 stock in a twofold dilution series at a final DMSO concentration of 1% if not otherwise mentioned. Otherwise, DMSO-d6 was added to the same percentage. The samples were equilibrated at 37°C for 3 min and the reaction initiated by adding 100 µM [^13C6]-InsP6. The reaction was quenched with 400 µl quenching solution (20 mM EDTA pD 6.0, 68.75 mM NaCl) and transferred into an NMR tube before being measured on a Bruker […] 600 PLUS with an NMR pulse program developed previously ([Harmel et al., 2019]).
# [2] = target: T2, IP6K1^L210V (Homo sapiens, UniProt Q92551, L210V); experiment: High-throughput screen, reverse kinase reaction (5PP-InsP5 + ADP), Kinase-Glo luminescence; type: biochemical
# T2 construct: made in house; host or cells: E. coli Arctic Express
# T2 sequence (Q92551 whole entry L210V): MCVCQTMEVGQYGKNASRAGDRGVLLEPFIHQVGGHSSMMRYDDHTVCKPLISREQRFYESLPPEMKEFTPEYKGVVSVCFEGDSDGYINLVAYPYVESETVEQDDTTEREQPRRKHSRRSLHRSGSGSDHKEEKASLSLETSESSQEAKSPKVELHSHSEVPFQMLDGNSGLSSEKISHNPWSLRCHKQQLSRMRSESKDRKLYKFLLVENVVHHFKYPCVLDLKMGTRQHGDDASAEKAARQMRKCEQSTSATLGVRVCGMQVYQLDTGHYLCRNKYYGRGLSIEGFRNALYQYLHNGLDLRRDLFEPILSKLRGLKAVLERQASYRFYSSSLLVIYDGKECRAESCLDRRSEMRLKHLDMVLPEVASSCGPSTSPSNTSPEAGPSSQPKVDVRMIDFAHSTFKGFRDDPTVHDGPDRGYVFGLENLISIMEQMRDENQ
# Source text: Although the NMR assay described above provides direct product detection and the ability to distinguish the PP-InsP isomers ([Harmel et al., 2019]), it is inherently slow and thus not compatible with a high-throughput screen. The use of luminescence-based readouts of ATP consumption to measure IP6K activity is error-prone due to the kinase’s unusually low affinity for ATP, the sensitivity to the ATP/ADP ratio, and its inherent ATPase activity ([Wundenberg et al., 2014]; [Voglmaier et al., 1996]). Nevertheless, we were able to take advantage of these properties by examining the reverse reaction of IP6K1 with the Kinase-Glo assay, where 5PP-InsP5 and ADP are converted to InsP6 and ATP (Figure 3a).
# The following solutions were prepared as 4× stock solutions: kinase buffer (HEPES pH 7.4, NaCl, BSA, MgCl2, Tween-20, DTT, and IP6K1^L210V), DMSO/inhibitor, ADP, and 5PP-InsP5. Final concentrations after optimization were 1 mM ADP, 20 mM HEPES, 50 mM NaCl, 0.2 mg/ml BSA, 2 mM MgCl2, 0.05% Tween-20, 1 mM DTT, 250 nM IP6K1^L210V, and 50 μM 5PP-InsP5. The reactions were carried out in 384-well plates following this procedure. 5 µl 4× kinase buffer (buffer only for no kinase controls), 5 µl 4× DMSO or inhibitor and 5 µl 4× ADP solution were subsequently added to all wells. After 10 min equilibration, 5 μl 4× 5PP-InsP5 were added to start the reaction (milli-Q water for negative controls). After 3 hr at room temperature, 20 µl of Promega Kinase-Glo Plus reagent were added and the luminescence read out with a Tecan Infinite M Plex reader using 100-ms exposure time after 10 min of equilibration.
# ADP was prepared in a 2× stock solution in milli-Q water and the pH adjusted to 7.0. The following solutions were prepared as 4× stock solutions: kinase buffer (HEPES pH 7.4, NaCl, BSA, MgCl2, Tween-20, DTT, and IP6K1^L210V) and 5PP-InsP5. Final concentrations were 1 mM ADP, 20 mM HEPES, 50 mM NaCl, 0.2 mg/ml BSA, 2 mM MgCl2, 0.05% Tween-20, 1 mM DTT, 250 nM IP6K1^L210V, and 50 µM 5PP-InsP5. The reactions were carried out in 384-well plates following this procedure. 10 µl 2× ADP solution were added to all wells, then 0.2 µl DMSO or compound (1 mM in DMSO) were added followed by the addition of 5 µl 4× kinase buffer. For dose–response curves, compounds were added in serial dilution (twofold serial dilutions in DMSO across multiple plates prior to compound transfer to assay plates, 9 concentrations in total). After 10 min equilibration, 5 µl 4× 5PP-InsP5 were added to start the reaction (milli-Q water for negative controls). After 3 hr at room temperature, 20 µl of Promega Kinase-Glo Plus reagent were added and the luminescence read out with a Tecan Infinite M Plex or Perkin Elmer EnVision reader using 100ms exposure time after 10 min of equilibration. In the counter screen, dose–response curves were measured in the absence of kinase and presence of 50 µM ATP.
# [3] = test system: HEK293; experiment: Cytotoxicity, cell survival after 72 hr incubation; type: cell-based; conditions: HEK293, 10 µM
# Procedure: (§1) Supplementary file elife-88982-supp2.xlsx: Supplementary file 2. Cytotoxicity of selected hits indicated by cell survival after 72 hr incubation at 10 µM concentration. All compounds were measured in independent triplicates and errors represent standard deviation. Redox activity of selected compounds measured via a photometric surrogate assay. Reactions contained 50 mM HEPES pH 7.5, 50 mM NaCl, 200 mM DTT, and 20 µM resazurin, and were incubated for 1 hr at 37°C.
# [4] = test system: HepG2; experiment: Cytotoxicity, cell survival after 72 hr incubation; type: cell-based; conditions: HepG2, 10 µM
# Procedure: as §1
smiles,measurement,setting,value
O=C(O)c1ccc2c(c1)C(=O)N(c1ccc(-c3nc4ccc(N5C(=O)c6ccc(C(=O)O)cc6C5=O)cc4[nH]3)cc1)C2=O [FMP-201300],pIC50,[1],5.24
same,pIC50,"[2]; Kinase-Glo, reverse reaction, dose-dependent reconfirmation",5.80
same,Z-score,"[2]; primary screen, IP6K1^L210V",-24.0
same,%Activity,"[2]; primary screen, residual activity of IP6K1^L210V",12.5%
same,cytotoxic,[3],nor cytotoxic
same,Cell number (%),[3]; 72 hr incubation,100.1 ± 4.1%
same,cytotoxic,[4],nor cytotoxic
same,Cell number (%),[4]; 72 hr incubation,99.1 ± 2.8%
